What was measured:
LNCaP cells = assay: Hoechst dye-DNA fluorescence growth assay, LNCaP cells; type: cell-based, human; details: varying concentrations (FIG. 8)
Experimental: (§1) For DNA assay, each culture plate was thawed and equilibrated to room temperature under protection from light. Hoechst dye was then added to each well in 200 μL of high salt TNE buffer (10 mM Tris, 1 mM EDTA, 2 M NaCl [pH 7.4]) at a final concentration of 6.7 μg/mL. After further incubation at room temperature for 2 hours under protection from light, culture plates were scanned on the CytoFluor 2350™ scanner using the 360/460 nm filter excitation and emission set. The DNA fluorescence intensity was used as a measure of cell growth.
(§2) The effects of varying concentrations of Mito-T drug on the growth of LNCaP and PC-3 cells over a period of 4 days was assayed using the Hoechst dye-DNA fluorescence assay described above. In these and all subsequent cell culture studies described below, each data point and its associated error bar are respectively, an average value and the standard deviation of data obtained from six wells of a 96-well plate run in duplicate in three separate sets of experiments.

PC-3 cells = assay: Hoechst dye-DNA fluorescence growth assay, PC-3 cells; type: cell-based, human; details: varying concentrations (FIG. 8)
Experimental: as §1, §2

SMILES: CC1(C)CC(OCCCCCCCCCC[P+](c2ccccc2)(c2ccccc2)c2ccccc2)CC(C)(C)N1[O] [MitoT-10, [4-(10-triphenylphosphonium)decyloxy-2,2,6,6-tetramethylpiperidinyloxy, freeradical]bromide]
- growth and proliferation (LNCaP cells): inhibitory effect
- growth and proliferation (PC-3 cells): inhibitory effect
